According to patent US6133279A, “Therapeutic agents for renal diseases and organ preservatives” (Chugai Seiyaku Kabushiki Kaisha, priority 1996, dated 2000):
Where two headings read alike, the source gives them in different places.

Tests used:
[1] = tested on: murine mesangial derived MES13 cells; test: Protective effect against oxidized LDL-induced injury of murine mesangial cells (in vitro); assay type: cell-based; details: Mus musculus, MES13, 10 h, mean ± standard deviation, read-out: Cytoprotection rate (%)
Procedure: For the purpose of evaluating in vitro cytoprotective effect of the compounds of the present invention on mesangial cells, a cytoprotective study was performed using murine mesangial derived MES13 cells (ATCC-CRL-1927) injured by oxidized LDL.
Oxidized LDL was prepared in the same manner as in Test example 1. Cell culture was carried out by plating 2.5×10^4 cells/250 μl/well on a 48-well plate using FBS-free medium (mixture of DME medium and F12 medium in a ratio of 3:1). Test compounds were dissolved or suspended in ethanol and added to the wells in an amount of 1.25 μl/well to a concentration of 1 or 10 μM in each well. After 16 hours or immediately after the addition of the compounds, oxidized LDL was added to cells in an amount of 25 μl/well to a concentration of 91 μg/ml and the cells were cultured for 10 hours after addition of the oxidized LDL. Then, 150 μl/well of the culture medium were collected and measured for the lactate dehydrogenase level (LDL: SIGMA DIAGNOSTICS) having leaked in the medium.
The magnitude of cytoprotective effect was expressed as the cytoprotection rate which was determined by calculating the data assuming that the magnitude in wells containing oxidized LDL is 0% and that the magnitude in containing saline is 100%.

[2] = tested on: ischemic acute renal failure model; test: Ischemic acute renal failure model, renal ischemia 30 minutes (in vivo); set-up: species or system rat (male SD rats); details: 200 mg/kg oral once a day
Procedure: Effect of a compound of the present invention on an in vivo renal disease was studied using an ischemic acute renal failure model.
An ischemic acute renal failure model was prepared from in groups of 8 each rats (male SD rats, weight: 224-285 g) fed with high-fat diet. High-fat diet feeding was started by free access to high-fat diet (cholesterol level 1.25%) from 7 or 8 days prior to unilateral nephrectomy and left renal artery clamping. The test compound was administered as a solution in soybean oil via oral route (4 ml/kg). Control group was orally administered soybean oil alone. The administration of compound was started from 4 or 5 days before the ischemic treatment at a dose of 200 mg/kg once a day. After the ischemia treatment, the oral administration of the compound was continued at a frequency of once a day. The ischemic treatment was performed by removing the right kidney and clipping a renal artery of the left kidney for 30 or 60 minutes.
Renal functions after ischemic treatment were determined by using urine and blood samples daily collected. Urine volume and the creatinine level of serum and urine were evaluated to calculate creatinine clearance as an indication of renal functions. Influences of high-fat diet feeding were monitored by measuring serum cholesterol level.

[3] = compound added 16 hours before adding oxidized LDL
[4] = compound added immediately before adding oxidized LDL

CCCCCC1(CCCCC)Cc2c(cc(C(C)(C)C)c(O)c2C(C)(C)C)O1 [Example 36, 4,6-Di-t-butyl-2,2-di-n-pentyl-5-hydroxy-2,3-dihydrobenzofuran]
inhibition at 1 µM [1, 3]: 9.7 ± 1.8%
inhibition at 1 µM [1, 4]: 2.7 ± 0.7%
inhibition at 10 µM [1, 3]: 43.5 ± 0.5%
inhibition at 10 µM [1, 4]: 40 ± 3.5%
Creatinine ([2]; 1 day after ischemia (30 minutes), control 1.73 ± 0.73, P < 0.05): 1.06 ± 0.24 mg/dL
Creatinine clearance ([2]; 1 day after ischemia (30 minutes), control 632 ± 167, P < 0.05): 934 ± 253 mL/day
Creatinine ([2]; 2 days after ischemia (30 minutes), control 1.84 ± 1.40): 0.96 ± 0.23 mg/dL
Creatinine clearance ([2]; 2 days after ischemia (30 minutes), control 678 ± 277, P < 0.05): 1095 ± 325 mL/day
Creatinine ([2]; 3 days after ischemia (30 minutes), control 2.19 ± 2.34): 1.05 ± 0.26 mg/dL
